From PMC3987113 (Toxicology and applied pharmacology, 2009)
“Also recorded” adds a separate entry of the source.

What was measured:
[1] = 300 μg/kg PCB126; ref Kopec et al. 2008; cited from earlier work
[2] = liver, PCB126; ref Kopec et al. 2008; cited from earlier work
[3] = test system: liver of immature, ovariectomized C57BL/6 mice; conditions: ref Boverhof et al. 2005; Kopec et al. 2008; cited from earlier work
[4] = Body and liver weights, time course study; type: in vivo, C57BL/6 mice; conditions: 300 mg/kg PCB153 or 30 μg/kg TCDD, mean ± SD, n=5; for Body weight gain: terminal body weight divided by body weight prior to dosing
[5] = Hepatic tissue level quantification by HRGC/HRMS; type: in vivo, C57BL/6 mice; conditions: liver, 168 h vs 24 h; single gavage 300 mg/kg PCB153 or 30 μg/kg TCDD
[6] = test system: liver of immature, ovariectomized C57BL/6 mice; assay: Liver histopathology; type: in vivo; conditions: 300 mg/kg PCB153 or 30 μg/kg TCDD
hepatic gene expression [7] = assay: Hepatic gene expression, Agilent 4 x 44K microarrays; type: in vivo, C57BL/6 mice; conditions: hepatic mRNA, 30 μg/kg TCDD; maximum fold change, |fold change|≥1.5, P1(t)≥0.90
hepatic gene expression [8] = assay: QRT-PCR verification of hepatic gene expression; type: in vivo, C57BL/6 mice
hepatic gene expression [9] = conditions: hepatic mRNA, cDNA microarray, 30 μg/kg TCDD; maximum fold change, |fold change|≥1.5, P1(t)≥0.90; ref Boverhof et al. 2005; cited from earlier work

Clc1ccc(-c2cc(Cl)c(Cl)c(Cl)c2)cc1Cl [PCB126, 3,3′,4,4′,5-pentachlorobiphenyl]
Effect on relative liver weight (RLW) [1]: also increased RLW at later time points
Hepatic level over time [2]: continued to increase throughout the study, reaching the highest concentration at 7 days
Hepatocyte cell size and number [3]: not affected

Clc1cc2c(cc1Cl)Oc1cc(Cl)c(Cl)cc1O2 [TCDD, 2,3,7,8-tetrachlorodibenzo-p-dioxin, reference compound]
Liver weight ([4]; 4 h): 0.733 ± 0.044 g
Relative liver weight ([4]; 4 h): 0.054 ± 0.003
Body weight gain ([4]; 4 h): 1.0 ± 0.0
Terminal body weight ([4]; 4 h after single gavage): 13.6 ± 0.8 g
Liver weight ([4]; 12 h): 0.724 ± 0.025 g
Relative liver weight ([4]; 12 h): 0.056 ± 0.001
Body weight gain ([4]; 12 h): 1.1 ± 0.0
Terminal body weight ([4]; 12 h after single gavage): 12.8 ± 0.7 g
Liver weight ([4]; 24 h): 0.973 ± 0.088 g
Relative liver weight ([4]; 24 h): 0.068 ± 0.003
Body weight gain ([4]; 24 h): 1.1 ± 0.0
Terminal body weight ([4]; 24 h after single gavage): 14.2 ± 0.9 g
Liver weight ([4]; 72 h): 1.068 ± 0.060 g
Relative liver weight ([4]; 72 h): 0.071 ± 0.003
Body weight gain ([4]; 72 h): 1.2 ± 0.1
Terminal body weight ([4]; 72 h after single gavage): 15.1 ± 0.7 g
Liver weight ([4]; 168 h): 1.263 ± 0.080 g
Relative liver weight ([4]; 168 h): 0.072 ± 0.003
Body weight gain ([4]; 168 h): 1.3 ± 0.0
Terminal body weight ([4]; 168 h after single gavage): 17.5 ± 0.4 g
Decrease of hepatic level after 7 days [5]: ~ 1.4 fold
Hepatic lipid accumulation, Oil Red O staining [6]: significant lipid accumulation
Necrosis and immune (mixed) cell infiltration in liver [6]: more dramatic vacuolization, and necrosis, as well as mixed cell infiltration
Hepatic inflammation ([6]; time course): moderate multifocal inflammation; also recorded: instances of multifocal inflammation
Hepatocellular vacuolization, time course study ([6]; Fig. 2 at 168 h): more severe; also recorded: slight to moderate vacuolization
TCDD fold change, Abcc3 (hepatic gene expression [7]): 1.7 fold
TCDD fold change, Acsl3 (hepatic gene expression [7]): −2.3 fold
TCDD fold change, Agpat4 (hepatic gene expression [7]): no change
TCDD fold change, Akr1b7 (hepatic gene expression [7]): no change
TCDD fold change, Akr1c20 (hepatic gene expression [7]): −1.7 fold
TCDD fold change, Aox1 (hepatic gene expression [7]): 2.2 fold
TCDD fold change, Cdca2 (hepatic gene expression [7]): no change
TCDD fold change, Cds2 (hepatic gene expression [7]): no change
TCDD fold change, Ces2 (hepatic gene expression [7]): 2.5 fold
TCDD fold change, Cyp2b9 (hepatic gene expression [7]): no change
TCDD fold change, Cyp2b10 (hepatic gene expression [7]): 2.3 fold
TCDD fold change, Cyp2b23 (hepatic gene expression [7]): no change
TCDD fold change, Cyp2c54 (hepatic gene expression [7]): no change
TCDD fold change, Cyp2c55 (hepatic gene expression [7]): 1.8 fold
TCDD fold change, Cyp3a25 (hepatic gene expression [7]): no change
TCDD fold change, Dhfr (hepatic gene expression [7]): no change
TCDD fold change, Elovl6 (hepatic gene expression [7]): −4.3 fold
TCDD fold change, Fasn (hepatic gene expression [7]): −4.3 fold
TCDD fold change, Fmo5 (hepatic gene expression [7]): no change
TCDD fold change, Gadd45a (hepatic gene expression [7]): −3.6 fold
TCDD fold change, Gadd45b (hepatic gene expression [7]): 3.2 fold
TCDD fold change, Gpx2 (hepatic gene expression [7]): no change
TCDD fold change, Gsta2 (hepatic gene expression [7]): 5.9 fold
TCDD fold change, Gstm4 (hepatic gene expression [7]): 2.4 fold
TCDD fold change, Gstt3 (hepatic gene expression [7]): 1.5 fold
TCDD fold change, Hmgcr (hepatic gene expression [7]): −2.6 fold
TCDD fold change, Hsd17b2 (hepatic gene expression [7]): 2.2 fold
TCDD fold change, Insig2 (hepatic gene expression [7]): −1.7 fold
TCDD fold change, Mad1l1 (hepatic gene expression [7]): no change
TCDD fold change, Myc (hepatic gene expression [7]): 3.0 fold
TCDD fold change, Nol3 (hepatic gene expression [7]): no change
TCDD fold change, Pla2g12a (hepatic gene expression [7]): 3.1 fold
TCDD fold change, Slc1a4 (hepatic gene expression [7]): no change
TCDD fold change, Slc23a1 (hepatic gene expression [7]): −1.7 fold
TCDD fold change, Smpd3 (hepatic gene expression [7]): −2.6 fold
TCDD fold change, Srebf1 (hepatic gene expression [7]): −2.3 fold
TCDD fold change, Srebf2 (hepatic gene expression [7]): −1.7 fold
TCDD fold change, Ugdh (hepatic gene expression [7]): 2.7 fold
TCDD fold change, Zwint (hepatic gene expression [7]): no change
Regulation of PCB153-responsive (CAR/PXR) genes by TCDD (hepatic gene expression [8]; 30 μg/kg TCDD, Table 3 and Fig. 5C): reciprocally modest; also recorded: minimal differential expression
Cyp1a2 induction (hepatic gene expression [8]; hepatic mRNA, time course, 30 μg/kg TCDD (Fig. 6A) or 300 mg/kg PCB153 (Fig. 6B)): ~ 30 fold
Elovl5 fold change (hepatic gene expression [8]; hepatic mRNA, time course, 300 mg/kg PCB153 or 30 μg/kg TCDD (Fig. 6A-B)): 2.2 fold
TCDD time course Boverhof et al., Abcc3 fold change (hepatic gene expression [9]): 1.5 fold
TCDD time course Boverhof et al., Agpat4 fold change (hepatic gene expression [9]): no change
TCDD time course Boverhof et al., Akr1b7 fold change (hepatic gene expression [9]): no change
TCDD time course Boverhof et al., Cds2 fold change (hepatic gene expression [9]): no change
TCDD time course Boverhof et al., Ces2 fold change (hepatic gene expression [9]): 1.6 fold
TCDD time course Boverhof et al., Cyp2b10 fold change (hepatic gene expression [9]): no change
TCDD time course Boverhof et al., Dhfr fold change (hepatic gene expression [9]): −1.5 fold
TCDD time course Boverhof et al., Elovl6 fold change (hepatic gene expression [9]): −1.8 fold
TCDD time course Boverhof et al., Fasn fold change (hepatic gene expression [9]): −1.9 fold
TCDD time course Boverhof et al., Fmo5 fold change (hepatic gene expression [9]): no change
TCDD time course Boverhof et al., Gadd45b fold change (hepatic gene expression [9]): 4.6 fold
TCDD time course Boverhof et al., Gpx2 fold change (hepatic gene expression [9]): no change
TCDD time course Boverhof et al., Gsta2 fold change (hepatic gene expression [9]): 7.2 fold
TCDD time course Boverhof et al., Gstt3 fold change (hepatic gene expression [9]): no change
TCDD time course Boverhof et al., Insig2 fold change (hepatic gene expression [9]): no change
TCDD time course Boverhof et al., Myc fold change (hepatic gene expression [9]): 3.7 fold
TCDD time course Boverhof et al., Nol3 fold change (hepatic gene expression [9]): no change
TCDD time course Boverhof et al., Slc1a4 fold change (hepatic gene expression [9]): no change
TCDD time course Boverhof et al., Srebf1 fold change (hepatic gene expression [9]): −2.1 fold
TCDD time course Boverhof et al., Srebf2 fold change (hepatic gene expression [9]): 1.5 fold
TCDD time course Boverhof et al., Ugdh fold change (hepatic gene expression [9]): 3.1 fold
Hepatocyte cell size and number [3]: not affected
